Data published in patent US7416741B2, “Copper lowering treatment of inflammatory and fibrotic diseases” (The Regents of the University of Michigan, priority 2002, dated 2008).

Assays:
[1] = In vitro copper complexing studies; details: compared with ammonium salt of TM
[2] = Solubility and stability of TM salts; details: other salts of TM
From the text: Thus, other salts have been prepared and evaluated for solubility, stability and anticopper activity.

hAPP tg mice = details: pharmacologic treatment of hAPP tg mice; cited from earlier work
[3] = test system: Wilson's disease patients; details: cited from earlier work
bleomycin mouse model = details: in vivo; cited from earlier work
[4] = test system: Wilson's disease patients; details: at cupruresis of 2-3 mg
Method: Ingestion of copper is about 1 mg/day, with obligatory, non-urine losses of about 0.5 mg.

cancer patients = details: cited from earlier work
[5] = therapeutic dose 1,000-2,000 mg/day

CCC[N+](CCC)(CCC)CCC.CCC[N+](CCC)(CCC)CCC.[S]=[Mo](=[S])([S-])[S-] [TPTM, tetrapropyl tetrathiomolybdate]
in vitro copper complexing [1]: behave similarly to ammonium salt of TM
solubility in water [2]: suitable solubility in water

C[N+](C)(C)CCO.C[N+](C)(C)CCO.[SH-].[SH-].[S]=[Mo]=[S] [choline TM]
in vitro copper complexing [1]: behave similarly to ammonium salt of TM

Oc1c(I)cc(Cl)c2cccnc12 [clioquinol]
amyloid pathology (hAPP tg mice): prevented

CC(C)Cc1ccc(C(C)C(=O)O)cc1 (centres unmarked) [ibuprofen]
amyloid pathology (hAPP tg mice): prevented

CC(C)(S)[C@@H](N)C(=O)O [penicillamine]
patients developing initial hypersensitivity syndrome ([3]; human, in vivo): about a quarter to a third of patients

Cc1ccc(=O)n(-c2ccccc2)c1 [perfenidone]
efficacy in the bleomycin mouse model (bleomycin mouse model): effective in the bleomycin mouse model

CC[N+](CC)(CC)CC.CC[N+](CC)(CC)CC.[S]=[Mo](=[S])([S-])[S-] [tetraethyl TM]
in vitro copper complexing [1]: behave similarly to ammonium salt of TM
solubility in water [2]: suitable solubility in water

NCCNCCNCCN [trientine]
negative copper balance [4]: 1.5 to 2.5 mg/day
patients with proteinuria ([3]; after several weeks of use): about 20%
cupruresis after the first few weeks of therapy [3, 5]: 2 to 3 mg
cupruresis, initial [3, 5]: 4 to 5 mg

CC(=O)[O-].CC(=O)[O-].[Zn+2] [zinc, zinc acetate]
copper balance induced ([3]; Wilson's patients, average): −0.35 mg daily
time to achieve intestinal metallothionein induction and a negative copper balance ([3]; Wilson's patients): approximately two
time to bring urine copper and nonceruloplasmin plasma copper down to subtoxic levels ([3]; zinc therapy): six

bleomycin
patients developing pulmonary fibrosis (cancer patients): about 3%
